Measurements as given in ChEMBL document CHEMBL4831514, “Novel betulin dicarboxylic acid ester derivatives as potent antiviral agents: Design, synthesis, biological evaluation, structure-activity relationship and in-silico study” (Eur J Med Chem, 2021).

Tests used:
Influenza A virus [1] = assay: (§1) Antiviral activity against Influenza A virus H1N1 (A/PR/8/34) infected in MDCK cells assessed as reduction in virus titer treated 1 hr post viral infection followed by replacement with fresh medium with compounds and measured after 72 hrs by MTT assay; type: functional, organism-based; conditions: H1N1 A/PR/8/34, MDCK
[2] = as §1, with “Selectivity index, ratio of CC50 for cytotoxicity against dog MDCK cells to EC50 for antiviral” for “Antiviral”; type: toxicity, cell-based; conditions: read-out: Selectivity Index
Influenza A virus [3] = assay: as §1, with “Potency index, ratio of oseltamivir EC50 to test compound EC50 for antiviral” for “Antiviral”; type: functional

CCOC(=O)C1=C[C@@H](OC(CC)CC)[C@H](NC(C)=O)[C@@H](N)C1 [OSELTAMIVIR]
EC50 (Influenza A virus [1]): 80.1 µM
selectivity ratio at 72 h [2]: 98.2

C=C(C)[C@@H]1CC[C@]2(COC(=O)CSCC(=O)O)CC[C@]3(C)[C@H](CC[C@@H]4[C@@]5(C)CC[C@H](O)C(C)(C)[C@@H]5CC[C@]43C)[C@@H]12
EC50 (Influenza A virus [1]): 21.1 µM
selectivity ratio at 72 h [2]: 2
Ratio EC50 (Influenza A virus [3]): 3

C#CC1(NC(=O)/C(C)=C/C(=O)OC[C@]23CC[C@@H](C(=C)C)[C@@H]2[C@H]2CC[C@@H]4[C@@]5(C)CC[C@H](O)C(C)(C)[C@@H]5CC[C@@]4(C)[C@]2(C)CC3)CCCCC1
EC50 (Influenza A virus [1]): 27.2 µM
selectivity ratio at 72 h [2]: 2
Ratio EC50 (Influenza A virus [3]): 3
